Results from PubChem BioAssay (NCI).
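Cells were grown in 96-well plates and exposed to each compound for 48 hours at five concentrations; endpoints were interpolated linearly between bracketing concentrations, or set to the highest concentration if not reached. Abbreviation: GI50, concentration required for 50% inhibition of growth. At the TGI there is no net growth.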

What was measured:
Experiment in all cases: NCI anticancer screen, dose series, 48 h
LOX IMVI melanoma = system: LOX IMVI melanoma
NCI/ADR-RES ovarian = system: NCI/ADR-RES ovarian
SF-268 CNS = system: SF-268 CNS
SF-539 CNS = system: SF-539 CNS
T-47D breast = system: T-47D breast
A549 NSCLC = system: A549 NSCLC
SNB-75 CNS = system: SNB-75 CNS
UO-31 renal = system: UO-31 renal
DU-145 prostate = system: DU-145 prostate
OVCAR-4 ovarian = system: OVCAR-4 ovarian

| SMILES | GI50 (LOX IMVI melanoma) [µM] | TGI (LOX IMVI melanoma) [µM] | GI50 (NCI/ADR-RES ovarian) [µM] | TGI (NCI/ADR-RES ovarian) [µM] | GI50 (SF-268 CNS) [µM] | TGI (SF-268 CNS) [µM] | GI50 (SF-539 CNS) [µM] | TGI (SF-539 CNS) [µM] | GI50 (T-47D breast) [µM] | TGI (T-47D breast) [µM] | GI50 (A549 NSCLC) [µM] | TGI (A549 NSCLC) [µM] | GI50 (SNB-75 CNS) [µM] | TGI (SNB-75 CNS) [µM] | GI50 (UO-31 renal) [µM] | TGI (UO-31 renal) [µM] | GI50 (DU-145 prostate) [µM] | TGI (DU-145 prostate) [µM] | GI50 (OVCAR-4 ovarian) [µM] | TGI (OVCAR-4 ovarian) [µM] |
| --- | --- | --- | --- | --- | --- | --- | --- | --- | --- | --- | --- | --- | --- | --- | --- | --- | --- | --- | --- | --- |
| Cc1ccc2[nH]c(O)c(N=Nc3ccc(S(N)(=O)=O)cc3)c2c1 | 13.1 | > 25 | 18.2 | > 25 | 11.8 | > 25 | 8.73 | > 25 | 15.3 | > 25 | 9.66 | > 25 | 8.46 | > 25 | 12.7 | > 25 | 9.46 | > 25 | 6.62 | > 25 |
| CN(C)C(=O)[C@H](O)[C@H](Cc1ccccc1)NC(=O)c1cc2cc(Cl)ccc2[nH]1 | 17 | 38.5 | 22.7 | > 100 | 21.1 | 73.3 | 20.2 | 43.3 | 25.1 | > 96.7 | 24 | > 93.3 | 17.4 | 65.6 | 14.8 | 39.8 | 33.3 | > 100 | 25.8 | > 100 |
| COc1ccc(/C=C/C(=O)C(CC2CCC2)C(=O)/C=C/c2ccc(OC)c(OC)c2)cc1OC | 1.25 | 2.52 | 2.58 | > 100 | 2.58 | 9.51 | 1.71 | 3.57 | 1.39 | 4.44 |  |  | 1.32 | 2.74 | 1.56 | 2.9 | 1.71 | 3.56 | 2.34 | > 100 |
| CCCCCCCCCCCCCCCCCCOc1ccccc1CC(=O)OCC[N+]1(C)CCCC1 | 1.8 | 3.36 | 15.1 | 42.4 | 1.55 | 3.34 | 1.86 | 3.62 | 3 | 17 |  |  | 1.26 | 3.07 | 3.27 | 15 | 2.21 | 5.29 | 2.94 | 12.1 |
| Cc1ccc(-c2nc3ccc(Cl)cc3c(=O)n2N2C(=O)CSC2c2ccccc2Cl)cc1 (centres undefined) | 70.1 | > 100 | 8.87 | > 100 | 9.97 | > 100 | > 100 | > 100 | 3.82 | > 100 |  |  | 1.39 | 4.74 | 3.66 | > 100 | 58.4 | > 100 | 4.54 | > 100 |
